{"source": "patent US20020197689A1", "about": "“Insecticidal peptides and methods for use of same” (priority 2000, published 2002)", "key": {"[1]": {"tested_on": "Spodoptera litura early third-instar larvae", "assay": "Microinjection bioassay of insecticidal activity in Spodoptera litura third-instar larvae", "type": "in vivo", "conditions": "for LD50: S. litura larvae, 50% mortality at 24 hours post-injection; for insecticidal activity (in words): S. litura third instar larvae", "method": "Due to the small amounts of material involved, bioassays are realized on a microscale, using a microinjection technique as described below. Drosophila melanogaster was used first as an insect model since it is amenable to injection of volumes of 50 nl volumes or less, and is very sensitive to spider toxins. In order to confirm activity against an economically important crop pest, Spodoptera litura early third-instar larvae were also used. S. litura is a highly polyphagous species, and is considered an international pest on cotton, tobacco, tomato, cabbage, cauliflower, peanuts, beans and other plants. However, S. litura is more resistant to toxins than D. melanogaster, and it requires injection of 10 to 100-fold higher doses. Application of the microinjection technique to S. litura larvae enabled its use as a test insect while lowering the amounts of sample used in the bioassays. In particular, early 3rd instar larvae (3 to 5 mg) can be injected successfully with volumes up to 800 nl of toxin composition. Lethal and paralytic activity of may be evaluated using D. melanogaster adult flies (˜0.7 mg/fly) and S. litura early third-instar larvae (5-8 mg/larva). See Escoubas, P., Pahna, H. F., Nakajima, T. (1995), “A Microinjection technique using Drosophila melanogaster for bioassay-guided isolation of neurotoxins in arthropod venoms”, Toxicon, 33(12), 1549-1555.\nTo perform the bioassay of SV toxin peptides, SV toxin peptides are injected into the dorsolateral area of Drosophila melanogaster adult flies or into the pronotum of 3rd instar Spodoptera litura larvae using a glass micropipette mounted on an automatic microinjector (A203XVY Nanoliter injector, WPI Precision Instruments, Sarasota, Fla., USA). Flies and larvae are examined five seconds after injection for evidence of involuntary contraction of body segments."}, "mice": {"tested_on": "mice", "assay": "Intracerebroventricular injection in mice", "type": "in vivo, mice (C57B16)", "conditions": "ICV injection, 2 micrograms per mouse", "method": "Intracerebroventricular injections (0.1 111 crude venom-equivalent in 5 μl of 20 mg/ml BSA and 9 mg/ml NaCl) of each toxin were also performed on 20 g male mice (C57B16)."}}, "note": "“Also recorded” adds a separate entry of the source. Where no end group is shown, it is not given here."}
{"substance": "PaspI (GCLGEGEKCADWSGPSCCDGFYCSCRSMPYCRCRNNS-NH2; disulfide (positions not given here); also: four disulfide bridges, pairing not given here)", "values": [{"measurement": "LD50", "setting": "[1]; injection", "result": "not significantly different from the LD50 measured for toxin AaIT"}, {"measurement": "LD50", "setting": "[1]; injection, listed as PaspI-NH2", "result": "9.7+4.1 μg/g"}, {"measurement": "insecticidal activity (in words)", "setting": "[1]; injection", "result": "most potent toxin towards S. litura; also recorded: greatest degree of insecticidal activity"}]}
{"substance": "PaspII (ACVGDGQRCASWSGPYCCDGYYCSCRSMPYCRCRNNS; disulfide (positions not given here); also: four disulfide bridges, pairing not given here)", "values": [{"measurement": "insecticidal activity (in words)", "setting": "[1]; injection", "result": "insecticidal activity"}, {"measurement": "toxic effect on mice", "setting": "mice", "result": "did have a toxic effect"}]}
{"substance": "PaspIII (ADCLNEGDWCADWSGPSCCGEMWCSCPGFGKCRCKK; disulfide (positions not given here); also: four disulfide bridges, pairing not given here)", "values": [{"measurement": "insecticidal activity (in words)", "setting": "[1]; injection", "result": "insecticidal activity"}]}
{"substance": "PaspIV (ACATKNQRCASWAGPYCCDGFYCSCRSYPGCMCRPNS; disulfide (positions not given here); also: four disulfide bridges, pairing not given here)", "values": [{"measurement": "insecticidal activity (in words)", "setting": "[1]; injection", "result": "insecticidal activity; also recorded: putatively least potent"}]}
{"substance": "XacI (ECIGGGGGCSVFSGPSCCGGTCKCKFVLIFPKGCHCT)", "values": [{"measurement": "paralysis of larvae", "setting": "[1]; isolated peptide, injection, assay procedure of Example 3", "result": "instantaneous paralysis"}, {"measurement": "time to some signs of recovery of treated larvae post-injection", "setting": "[1]; possibly low injection dose, below the LD50", "result": "8 to 12", "unit": "h"}]}
